One may read the IC50 as the concentration needed to halve the response being measured.

Consider 17 molecules from patent US12685726B2, “Sulfoximines as inhibitors of NaV1.8” (Gruenenthal GmbH, priority 2022, dated 2026).

The target of the assay is T1, human NaV 1.8 (Homo sapiens, UniProt Q9Y5Y9).
T1 construct: expressed in transfected cells; host or cells: HEK (recombinant cell line)
The assay is described as follows: Automated whole-cell patch clamp (Qube384) voltage-clamp recordings of sodium currents in HEK-NaV1.8 cell line. Format: cell-based. The settings on record: read-out: Potency category (human NaV 1.8 IC50). On the procedure: Electrophysiology: Voltage-Clamp Recordings
The following NaV1.8 recombinant cell line was used for recordings: HEK-NaV1.8 (NM_006514.1) with b3 (NM_018400.3).
Sodium currents were measured using the patch clamp technique in the whole-cell configuration using the Qube384 (Sophion A/S, Copenhagen, Denmark) automated voltage clamp platform. “Multi hole” plates were used for the cell line expressing NaV1.8 while “single hole” plates were used for the recombinant cell lines expressing the other subtypes. Appropriate filters (for minimum seal resistance and minimum current size) and series resistance compensation (for high quality sodium channel recordings) were applied. Data was collected at ambient room temperature or 19° C.
The recording extracellular solution contained (in mM): NaCl 145 mM, KCl 4 mM, CaCl2 2 mM, MgCl2 1 mM, HEPES 10 mM, Glucose 10 mM, pH 7.4 (NaOH). The intracellular recording solution contained (in mM): CsF 120 mM, CsCl 20 mM, NaCl 10 mM, EGTA 10 mM, HEPES 10 mM, pH 7.2 (CsOH). Currents were recorded at 25 kHz sampling frequency and filtered at 5 kHz. Series resistance compensation was applied at 65%.
Vehicle (VEH) is the control condition where cells are exposed to 0.3% DMSO without compound. All runs include VEH controls being exposed to the same voltage protocols to assess non-compound related phenomena such as run down and then used to isolate compound dependent effects on currents.
To check for state-dependent inhibition, the following voltage-sequence was applied every 20 seconds:
From a resting membrane potential of −120 mV, the first test pulse (P1; 20 ms to −10 mV) was applied to check for channels in the Resting State followed by a brief recovery (100 ms to −120 mV), then holding the membrane voltage to V1/2 (4 seconds at voltage to obtain half the channel at Rest and half Inactivated) with a subsequent second test pulse (P2; 20 ms to −10 mV) to check for channels in the Inactivated State, followed by another brief recovery (20 ms to −120 mV) and a final third test pulse (P3; 20 ms to −10 mV) to check for recovered channels.
To check for frequency-dependent inhibition, a 10 Hz protocol and a 20 Hz protocol were applied; namely,
From a resting membrane potential of −120 mV, 40-pulses (10 ms to −10 mV) was applied at 10 Hz (at 100 ms between pulses) and then at 20 Hz (at 50 ms between pulses).
Each parameter was recorded (P1, P2, P3, P40 from 10 Hz and P40 from 20 Hz) during a control period (lasting 5 minutes) when establishing the baseline and during compound period (lasting ~12 minutes) when test compound (or vehicle) was applied. For each parameter, the value at the end of the compound period was normalized to the vehicle baseline; as follows
To adjust for any variance in the Na^+ current signal during the compound period (owing to cumulative inactivation independent of compound or shifts in biophysics over time), a dedicated segment of the recording wells in each 384 plate were dedicated to having only vehicle exposure. These vehicle-only recordings were used to correct for any apparent “run-up” or “run-down” in the experiment.
The adjusted inhibition was calculated as follows: […]
Percent inhibition was determined and IC50 values were calculated using a 4 parameter logistic model within XLFit Software (IDBS, Boston MA): F
[formula] where A and B are the maximal and minimum inhibition respectively, C is the IC50 concentration and D is the (Hill) slope.
Background: In patch-clamp work, channel activity is measured electrically.

Some results are limits rather than exact numbers.

T1 sequence (Q9Y5Y9 whole entry): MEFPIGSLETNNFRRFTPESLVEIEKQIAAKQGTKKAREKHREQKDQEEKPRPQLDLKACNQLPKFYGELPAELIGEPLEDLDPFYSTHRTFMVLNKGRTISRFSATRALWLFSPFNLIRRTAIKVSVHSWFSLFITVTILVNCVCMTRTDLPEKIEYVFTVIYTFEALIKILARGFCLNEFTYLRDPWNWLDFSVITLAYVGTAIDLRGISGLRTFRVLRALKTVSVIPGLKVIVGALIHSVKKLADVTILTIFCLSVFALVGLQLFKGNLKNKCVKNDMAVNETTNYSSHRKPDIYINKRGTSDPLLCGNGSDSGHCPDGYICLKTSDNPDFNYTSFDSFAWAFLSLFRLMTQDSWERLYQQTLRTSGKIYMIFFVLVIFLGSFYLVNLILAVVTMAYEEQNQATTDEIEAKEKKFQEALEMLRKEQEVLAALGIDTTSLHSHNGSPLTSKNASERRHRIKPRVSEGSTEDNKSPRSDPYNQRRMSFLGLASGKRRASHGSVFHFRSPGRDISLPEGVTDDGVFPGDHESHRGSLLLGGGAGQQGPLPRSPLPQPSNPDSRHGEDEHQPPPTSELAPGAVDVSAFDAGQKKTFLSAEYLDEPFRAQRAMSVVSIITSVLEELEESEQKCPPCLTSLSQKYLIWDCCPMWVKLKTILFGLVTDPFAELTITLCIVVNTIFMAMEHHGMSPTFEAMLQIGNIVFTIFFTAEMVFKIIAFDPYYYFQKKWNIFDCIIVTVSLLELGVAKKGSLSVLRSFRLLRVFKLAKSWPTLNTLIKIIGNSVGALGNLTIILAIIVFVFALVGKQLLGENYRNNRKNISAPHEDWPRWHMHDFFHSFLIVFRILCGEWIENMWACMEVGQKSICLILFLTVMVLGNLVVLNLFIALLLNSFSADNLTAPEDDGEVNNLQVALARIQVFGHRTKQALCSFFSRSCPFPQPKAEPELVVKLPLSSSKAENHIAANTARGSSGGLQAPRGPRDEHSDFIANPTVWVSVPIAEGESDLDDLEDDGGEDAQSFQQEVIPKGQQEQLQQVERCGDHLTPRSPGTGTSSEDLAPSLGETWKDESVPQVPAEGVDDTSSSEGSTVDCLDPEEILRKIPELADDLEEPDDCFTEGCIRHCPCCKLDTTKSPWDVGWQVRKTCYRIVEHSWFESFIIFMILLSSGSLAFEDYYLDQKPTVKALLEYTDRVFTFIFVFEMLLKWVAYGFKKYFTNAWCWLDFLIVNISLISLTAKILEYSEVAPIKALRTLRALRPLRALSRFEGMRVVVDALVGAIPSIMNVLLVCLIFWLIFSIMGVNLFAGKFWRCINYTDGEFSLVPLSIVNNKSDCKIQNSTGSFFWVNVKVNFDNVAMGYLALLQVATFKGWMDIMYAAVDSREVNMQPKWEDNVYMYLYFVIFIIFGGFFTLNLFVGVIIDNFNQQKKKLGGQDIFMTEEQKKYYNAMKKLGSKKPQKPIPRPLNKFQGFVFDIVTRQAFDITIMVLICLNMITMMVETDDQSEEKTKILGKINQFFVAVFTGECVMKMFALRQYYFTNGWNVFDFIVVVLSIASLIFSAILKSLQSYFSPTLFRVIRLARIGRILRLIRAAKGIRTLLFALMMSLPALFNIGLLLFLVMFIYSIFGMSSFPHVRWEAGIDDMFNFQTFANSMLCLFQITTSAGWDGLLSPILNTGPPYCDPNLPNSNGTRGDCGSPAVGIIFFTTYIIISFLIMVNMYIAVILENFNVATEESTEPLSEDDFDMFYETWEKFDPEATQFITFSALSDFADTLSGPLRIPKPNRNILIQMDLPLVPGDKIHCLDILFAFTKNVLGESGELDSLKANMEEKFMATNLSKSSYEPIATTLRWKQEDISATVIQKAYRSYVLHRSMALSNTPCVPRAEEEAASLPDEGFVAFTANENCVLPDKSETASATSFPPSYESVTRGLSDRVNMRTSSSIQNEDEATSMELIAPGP

For `CC1(Cn2nc(C34CC(C3)C4)c(C(F)(F)F)c2C(=O)Nc2ccnc(S(C)(=N)=O)c2)CC(F)(F)C1` (single isomer, unassigned) [Example 58a, 3-(Bicyclo[1.1.1]pentan-1-yl)-1-((3,3-difluoro-1-methylcyclobutyl)methyl)-N-(2-(S-methylsulfonimidoyl)pyridin-4-yl)-4-(trifluoromethyl)-1H-pyrazole-5-carboxamide], the IC50 was ≤ 100 nM. Consider `CS(=N)(=O)c1cc(NC(=O)c2c(C(F)(F)F)c(C3CC3)nn2CC2CC3(C2)CC(F)(F)C3)ccn1` (single isomer, unassigned) [Example 27b, 3-cyclopropyl-1-((6,6-difluorospiro[3.3]heptan-2-yl)methyl)-N-(2-(S-methylsulfonimidoyl)pyridin-4-yl)-4-(trifluoromethyl)-1H-pyrazole-5-carboxamide], for which the IC50 is ≤ 100 nM. The value for `C[C@]1(Cn2nc(C3CC3)c(C(F)(F)F)c2C(=O)Nc2ccnc([S@](C)(=N)=O)c2)CC(F)(F)C12CC2` (single isomer, unassigned) [Example 92a, 3-cyclopropyl-1-((6,6-difluoro-4-methylspiro[2.3]hexan-4-yl)methyl)-N-(2-(S-methylsulfonimidoyl)pyridin-4-yl)-4-(trifluoromethyl)-1H-pyrazole-5-carboxamide] was ≤ 100 nM; that for `CC1(Cn2nc(C3(F)CC3)c(C(F)(F)F)c2C(=O)Nc2cccc([S@](C)(=O)=NC(=O)CO)c2)CC(F)(F)C1` [Example 151b] was ≤ 100 nM; that for `Cc1c(C(C)(F)F)nn(C[C@H]2C[C@@H](C(F)(F)F)C2)c1C(=O)Nc1ccnc(S(C)(=N)=O)c1` (single isomer, unassigned) [Example 31a, 3-(1,1-difluoroethyl)-4-methyl-N-(2-(S-methylsulfonimidoyl)pyridin-4-yl)-1-(((cis)-3-(trifluoromethyl)cyclobutyl)methyl)-1H-pyrazole-5-carboxamide] was ≤ 100 nM.

Consider `CS(=N)(=O)c1cc(NC(=O)c2c(C(F)(F)F)c(C3CC3)nn2CC23CC(C(F)(F)F)(C2)C3)ccn1` (single isomer, unassigned) [Example 23a, 3-cyclopropyl-N-(2-(S-methylsulfonimidoyl)pyridin-4-yl)-4-(trifluoromethyl)-1-((3-(trifluoromethyl)bicyclo[1.1.1]pentan-1-yl)methyl)-1H-pyrazole-5-carboxamide], for which the IC50 is ≤ 100 nM. The value for `CC1(Cn2nc(C34CC(F)(C3)C4)c(C(F)(F)F)c2C(=O)Nc2ccc(F)c(S(C)(=N)=O)c2)CC(F)(F)C1` (single isomer, unassigned) [Example 141b, 1-((3,3-Difluoro-1-methylcyclobutyl)methyl)-N-(4-fluoro-3-(S-methylsulfonimidoyl)phenyl)-3-(3-fluorobicyclo[1.1.1]pentan-1-yl)-4-(trifluoromethyl)-1H-pyrazole-5-carboxamide] was ≤ 100 nM; that for `CC1(Cn2nc(C3CC3)c(C(F)(F)F)c2C(=O)Nc2ccnc(S(C)(=O)=NC#N)c2)CC(F)(F)C1` (single isomer, unassigned) [Example 142b, N-(2-(N-Cyano-S-methylsulfonimidoyl)pyridin-4-yl)-3-cyclopropyl-1-((3,3-difluoro-1-methylcyclobutyl)methyl)-4-(trifluoromethyl)-1H-pyrazole-5-carboxamide] was ≤ 100 nM. Then `CC(F)(F)c1nn(CC2CC(F)(F)C2)c(C(=O)Nc2ccnc(S(C)(=N)=O)c2)c1C(F)(F)F` (centres unmarked) [Example 3, 1-((3,3-Difluorocyclobutyl)methyl)-3-(1,1-difluoroethyl)-N-(2-(S-methylsulfonimidoyl)pyridin-4-yl)-4-(trifluoromethyl)-1H-pyrazole-5-carboxamide], with ≤ 100 nM; and `CS(=N)(=O)c1cc(NC(=O)c2c(C(F)(F)F)c(OC(F)F)nn2CC2CCC(F)(F)C2)ccn1` (centres unmarked) [Example 33, 1-((3,3-Difluorocyclopentyl)methyl)-3-(difluoromethoxy)-N-(2-(S-methylsulfonimidoyl)pyridin-4-yl)-4-(trifluoromethyl)-1H-pyrazole-5-carboxamide], with ≤ 100 nM. Take `CS(=N)(=O)c1cc(NC(=O)c2c(C(F)(F)F)c(C3CC3)nn2CC23CC2CC(F)(F)C3)ccn1` (single isomer, unassigned) [Example 95c, 3-Cyclopropyl-1-((3,3-difluorobicyclo[3.1.0]hexan-1-yl)methyl)-N-(2-(S-methylsulfonimidoyl)pyridin-4-yl)-4-(trifluoromethyl)-1H-pyrazole-5-carboxamide]: the IC50 is ≤ 100 nM. In the case of `CC1(Cn2nc(C3(F)CC3)c(C(F)F)c2C(=O)Nc2cccc(S(C)(=N)=O)c2)CC(F)(F)C1` (single isomer, unassigned) [Example 135a, 1-((3,3-Difluoro-1-methylcyclobutyl)methyl)-4-(difluoromethyl)-3-(1-fluorocyclopropyl)-N-(3-(S-methylsulfonimidoyl)phenyl)-1H-pyrazole-5-carboxamide], the IC50 was ≤ 100 nM.

Turning to `CC1(Cn2nc(C3CC3)c(C(F)(F)F)c2C(=O)Nc2cccc(S(C)(=N)=O)c2)CC(F)(F)C1` (single isomer, unassigned) [Example 45b, 3-cyclopropyl-1-((3,3-difluoro-1-methylcyclobutyl)methyl)-N-(3-(S-methylsulfonimidoyl)phenyl)-4-(trifluoromethyl)-1H-pyrazole-5-carboxamide], the IC50 is ≤ 100 nM. Then `C[S@](=N)(=O)c1cccc(NC(=O)c2c(C(F)(F)F)c(C3(F)CC3)nn2CC2C[C@@H]2C(F)(F)F)c1` (single isomer, unassigned) [Example 134b, 3-(1-Fluorocyclopropyl)-N-(3-(S-methylsulfonimidoyl)phenyl)-4-(trifluoromethyl)-1-(((trans)-2-(trifluoromethyl)cyclopropyl)methyl)-1H-pyrazole-5-carboxamide], with ≤ 100 nM; and `CS(=N)(=O)c1cc(NC(=O)c2c(C(F)(F)F)c(C3CC3)nn2CC2CCC(F)(F)C2)ccn1` (single isomer, unassigned) [Example 7b, 3-cyclopropyl-1-((3,3-difluorocyclopentyl)methyl)-N-(2-(S-methylsulfonimidoyl)pyridin-4-yl)-4-(trifluoromethyl)-1H-pyrazole-5-carboxamide], with ≤ 100 nM. The value for `CS(=N)(=O)c1cc(NC(=O)c2c(C(F)(F)F)c(C3CC3)nn2CC2CC3(C2)CC(F)(F)C3)ccn1` (single isomer, unassigned) [Example 27a, 3-cyclopropyl-1-((6,6-difluorospiro[3.3]heptan-2-yl)methyl)-N-(2-(S-methylsulfonimidoyl)pyridin-4-yl)-4-(trifluoromethyl)-1H-pyrazole-5-carboxamide] was ≤ 100 nM; that for `CC1(Cn2nc(C3CC3)c(C(F)(F)F)c2C(=O)Nc2cncc(S(C)(=N)=O)c2)CC(F)(F)C1` (single isomer, unassigned) [Example 46b, 3-cyclopropyl-1-((3,3-difluoro-1-methylcyclobutyl)methyl)-N-(5-(S-methylsulfonimidoyl)pyridin-3-yl)-4-(trifluoromethyl)-1H-pyrazole-5-carboxamide] was ≤ 100 nM.
